BigSolDB 2.1

CC(=O)Oc1ccccc1C(=O)O
Settings | solubility (mole fraction)
in acetone, 281.9 K | 0.061
in acetone, 290.6 K | 0.075
in acetone, 297.9 K | 0.088
in acetone, 304.4 K | 0.101
in acetone, 310.6 K | 0.114
in acetone, 315.3 K | 0.127
in acetone, 319.8 K | 0.139
in acetone, 323.3 K | 0.151
in acetone, 326.3 K | 0.162
in ethanol, 276.3 K | 0.025
in ethanol, 291.9 K | 0.049
in ethanol, 302.4 K | 0.071
in ethanol, 310 K | 0.093
in ethanol, 316.5 K | 0.113
in ethanol, 321.5 K | 0.133
in ethanol, 325.9 K | 0.152
in ethanol, 330.4 K | 0.17
in ethanol, 333.4 K | 0.187
in ethanol, 336.6 K | 0.204
in isopropanol, 281.6 K | 0.013
in isopropanol, 291.8 K | 0.032
in isopropanol, 304.1 K | 0.063
in isopropanol, 312.9 K | 0.091
in isopropanol, 316.1 K | 0.102
in isopropanol, 320.4 K | 0.118
in isopropanol, 322.7 K | 0.128
in isopropanol, 325.8 K | 0.143
in isopropanol, 327.7 K | 0.153
in isopropanol, 330.2 K | 0.167
in propylene glycol, 295.7 K | 0.017
in propylene glycol, 301.1 K | 0.025
in propylene glycol, 305.1 K | 0.033
in propylene glycol, 308.2 K | 0.041
in propylene glycol, 313.6 K | 0.056
in propylene glycol, 318.3 K | 0.071
in propylene glycol, 323.7 K | 0.092
in propylene glycol, 327.9 K | 0.112
in propylene glycol, 330.7 K | 0.126
in propylene glycol, 333.9 K | 0.145
